Key:
SCC7 cell line = assay: Cell viability assay (MTT); type: cell-based, murine
Protocol: Murine squamous cell carcinoma cell line, SCC7 purchased from Prof. Reinhard Zeidler, at the German Research Center for Environmental Health in Munich, were cultured in DMEM containing 10% v/v FBS and (2 mM) L-glutamine, kept at a temperature of 37° C. and in humidified atmosphere containing 5% v/v CO2 and 95% v/v air. For maintain cell growth, cells were split every 2-3 days using […] trypsin solution for detaching.
Tablets (1×3 mm) containing alginate (0.8, 1.6 mg) and liposomes (0.8 mg) in the form of layered or homogenous, either empty or DOX loaded liposomes were prepared as described above. The final concentration of DOX in each tablet was (1.68 mg mL^−1). To examine the toxicity of the tablets containing the drug on SCC7 cell line, at first cells were seeded at a uniform density of 15,000 cells per well on 96 well plates in […] DMEM medium. On the day of the experiment, medium was replaced with fresh medium containing the tablets, free DOX and in some wells empty fresh medium to serve as control. Cells were incubated for 4, 8, 12, 24, 48 and 72 hr in humidified atmosphere at 37° C. Cells viability was measured using the MTT assay. The medium was removed and (100 μl) of MTT (1 mg mL^−1) in PBS^−1 were added to each well and incubated at 37° C. for 4 hr. […] The absorbance was measured at 570 nm and 690 nm for the background absorbance. […]

OSCC cell line (HSC-2) = conditions: in vitro; cited from earlier work

Structure (SMILES): COc1cccc2c1C(=O)c1c(O)c3c(c(O)c1C2=O)C[C@@](O)(C(=O)CO)C[C@@H]3O[C@H]1C[C@H](N)[C@H](O)[C@H](C)O1 [free DOX, Doxorubicin]
- cell viability (SCC7 cell line; SCC7, long times): 3-10%
- cell viability (SCC7 cell line; SCC7, short times): 28-40%
- apoptosis induction (OSCC cell line (HSC-2)): induce apoptosis through the activation of caspase-3, -8 and -9

— patent US20240091145A1, “DRY MUCO-ADHESIVE COMPOSITIONS AND USE THEREOF” (TECHNION RESEARCH & DEVELOPMENT FOUNDATION LIMITED, priority 2021, published 2024)
